US8623661B2, “Iron chelating agent, method for producing same, method for determining amount of iron ions and method for trapping iron ions” (National University Corporation Asahikawa Medical College, priority 2008, dated 2014)

Experiments:
[1] = tested on: iron nitrilotriacetate complex (Fe-NTA); assay: Evaluation B: chelating ability with iron, absorbance after adding chelating agent to iron nitrilotriacetate complex (Fe-NTA) solution; assay type: binding; details: for [B] absorbance after addition of iron chelating agent / [B]-[A]: 470 nm; for [B]-[A]: minus blank
Procedure: Evaluation was carried out by the following evaluation method B as to whether the iron chelating agent according to Example 1 had chelating ability with iron.
An iron chelating agent solution (Fe-Ser•Na (50 mM)) having an iron chelating agent concentration of 50 mM was prepared in the same manner as the preparation method of the iron chelating agent solution in evaluation method A of the iron chelating agent.
Ferric chloride-6 hydrate FeCl3.6H2O (MW270.30) crystals were dissolved in Milli-Q water to prepare an 80 mM solution (A liquid). Meanwhile, 160 mM of nitrilotriacetic acid solution (B liquid) was prepared by dissolving crystals of the free salt of NTA (191.14) in 6N hydrochloric acid. 10 mL of A liquid and 10 mL of B liquid was taken in a beaker, and sodium hydrogen carbonate NaHCO3 crystals were added bit by bit while stirring slowly. When gas generation was suppressed and the solution changed to a dark green color, the addition of NaHCO3 was completed. Finally, iron nitrilotriacetate complex solution “Fe-NTA solution (20 mM)” having an iron ion concentration of 20 mM made up to 40 mL was prepared.
Further, 1×D-PBS (pH 7.2) was added to Fe-NTA solution (20 mM) to prepare an iron nitrilotriacetate complex solution having a concentration of iron ions of 2 mM (“Fe-NTA solution (2 mM)”).
Iron nitrilotriacetate complex solution [Fe-NTA solution (20 mM), Fe-NTA solution (2 mM)], and 1×D-PBS (pH 7.2) were mixed at the ratios shown in Tables 3 to 4, the absorbance of the mixture (wavelength 470 nm) was measured by using a spectrophotometer (trade name “NanoDrop ND-1000 Full-spectrum UV/Vis Spectrophotometer”, manufactured by SCRUM Corporation, UV-Vis Module, Measure), and the absorbance of blank ([A] in Tables 3 to 4) was determined. Then, 158 μl of Fe-Ser•Na (50 mM) was added to the mixture, the absorbance (wavelength 470 nm) was measured as described above, and the absorbance after the addition of the iron chelating agent according to Examples ([B] in Tables 3 to 4) was determined.

[2] = target: T1, transferrin iron complex (holo-Transferrin (hTf), human) (Homo sapiens, UniProt P02787); assay: Evaluation D: capture of iron ions from transferrin iron complex; assay type: binding
T1 construct: purchased Sigma Corporation T0665-50MG
T1 sequence (P02787 20-698, one chain of several): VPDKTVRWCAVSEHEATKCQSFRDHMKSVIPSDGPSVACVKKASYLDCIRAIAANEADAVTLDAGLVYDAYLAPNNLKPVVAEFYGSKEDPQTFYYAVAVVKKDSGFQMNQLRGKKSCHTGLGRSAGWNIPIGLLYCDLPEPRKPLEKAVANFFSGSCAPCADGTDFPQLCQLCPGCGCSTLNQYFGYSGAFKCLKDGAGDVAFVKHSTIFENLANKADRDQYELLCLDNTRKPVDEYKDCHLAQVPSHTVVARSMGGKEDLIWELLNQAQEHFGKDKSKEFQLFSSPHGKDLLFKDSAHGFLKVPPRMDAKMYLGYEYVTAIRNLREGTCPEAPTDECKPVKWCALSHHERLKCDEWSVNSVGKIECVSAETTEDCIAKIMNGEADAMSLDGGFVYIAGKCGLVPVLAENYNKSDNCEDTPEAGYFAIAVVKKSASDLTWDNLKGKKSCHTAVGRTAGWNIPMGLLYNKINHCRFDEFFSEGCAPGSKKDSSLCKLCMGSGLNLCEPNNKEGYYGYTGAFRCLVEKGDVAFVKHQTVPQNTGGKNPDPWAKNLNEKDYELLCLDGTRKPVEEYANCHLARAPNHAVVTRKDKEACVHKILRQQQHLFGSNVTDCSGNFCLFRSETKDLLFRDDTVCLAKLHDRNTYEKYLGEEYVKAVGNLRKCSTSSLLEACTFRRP
Procedure: Evaluation was carried out by the following evaluation method D with respect to properties whether iron ions were captured from the transferrin iron complex (transferrin iron complex in which transferrin is chelated to iron ions) by the iron chelating agent according to Examples 1 to 2.
The iron chelating agent according to Example 1 was dissolved in 1×D-PBS (pH 7.2) to prepare an iron chelating agent solution (“Fe-Ser•Na (5 mM)”) having an iron chelating agent concentration of 5 mM, in the same manner as the preparation method of the iron chelating agent in evaluation A of the iron chelating agent.
Further, as described above, the iron chelating agent according to Example 2 was dissolved in 1×D-PBS (pH 7.2) to prepare an iron chelating agent solution (“Fe-His•Na (5 mM)”) having an iron chelating agent concentration of 5 mM.
Further, 800 mM HEDTA solution as the iron chelating agent according to Comparative Example 3 was prepared as described above. 13.76 g of crystals were taken in a 50 mL conical tube, 25 mL of Milli-Q water was added and dissolution performed, and then adjustment to pH 7.0 was performed using concentrated hydrochloric acid (35 to 37%) and the total amount was adjusted to 50 mL using Milli-Q water (HEDTA solution (800 mM)). HEDTA solution (“HEDTA solution (5 mM)”) having a concentration of HEDTA of 5 mM was prepared using 1×D-PBS (pH 7.2).
Further, 800 mM solution (pH 7.0) was prepared by using NTA2Na and NTA3Na as iron chelating agents according to Comparative Example 1 as described above. 9.4 g of NTA2Na was dissolved in Milli-Q water and the total volume was made up to 50 mL (referred to as “NTA2Na solution (800 mM)” in some cases). Meanwhile, 11.0 g of NTA3Na was dissolved in Milli-Q water and the total volume was made up to 50 mL (“NTA3Na solution (800 mM)”). NTA2Na solution (800 mM) (pH 6.3) and NTA3Na solution (800 mM) (pH 11.3) were mixed to produce 800 mM of NTA solution with pH 7.0. NTA solution (“NTA solution (5 mM)”) having a concentration of NTA of 5 mM was prepared by using 1×D-PBS (pH 7.2).
A commercially available transferrin iron complex (holo-Transferrin (hTf), human, Code T0665-50MG, Lot 095K1633, manufactured by Sigma Corporation) was dissolved in 1×D-PBS (pH 7.2) to prepare a transferrin iron complex solution having a concentration of iron ions (iron ions which are transferrin-bound iron) of 50 μM.
50 μl of 50 μM transferrin iron complex solution was taken in a 1.5 mL sample tube, 50 μl of each of iron chelating agent solutions (Fe-Ser•Na (5 mM), Fe-His•Na (5 mM), NTA solution (5 mM), HEDTA solution (5 mM)) was added thereto and left at room temperature under light shielding for 24 hours. 50 μl of various reaction liquids was taken in a centrifugal ultrafiltration unit (trade name “Amicon Ultra-4 Ultracel-30k” UFC8030, manufactured by Millipore Corporation), and 450 μl of 1×D-PBS (pH 7.2) was added thereto, centrifugation was carried out at 3,500 rpm and 20° C. for 30 minutes, and transferrin and each low molecular chelating agents were separated (first time). After centrifugation, the filtrate was discarded. 450 μl of 1×D-PBS (pH 7.2) was added again to the solution (about 50 μl) containing transferrin concentrated in a unit and centrifugation was carried out with the same conditions (second time). A solution containing transferrin concentrated in a unit was recovered after the second time of centrifugation and the absorbance at the wavelength of 466 nm was measured using a spectrophotometer (trade name “Spectrophotometer DU 640”, manufactured by Beckman Coulter).

[3] = Fe-NTA solution (2 mM) 0 μl + 1xD-PBS 160 μl + Fe-Ser•Na (50 mM) 158 μl
[4] = Fe-NTA solution (2 mM) 10 μl + 1xD-PBS 150 μl + Fe-Ser•Na (50 mM) 158 μl
[5] = Fe-NTA solution (2 mM) 20 μl + 1xD-PBS 140 μl + Fe-Ser•Na (50 mM) 158 μl
[6] = Fe-NTA solution (2 mM) 40 μl + 1xD-PBS 120 μl + Fe-Ser•Na (50 mM) 158 μl
[7] = Fe-NTA solution (2 mM) 80 μl + 1xD-PBS 80 μl + Fe-Ser•Na (50 mM) 158 μl
[8] = Fe-NTA solution (2 mM) 160 μl + 1xD-PBS 0 μl + Fe-Ser•Na (50 mM) 158 μl
[9] = Fe-NTA solution (20 mM) 0 μl + 1xD-PBS 160 μl + Fe-Ser•Na (50 mM) 158 μl
[10] = Fe-NTA solution (20 mM) 10 μl + 1xD-PBS 150 μl + Fe-Ser•Na (50 mM) 158 μl
[11] = Fe-NTA solution (20 mM) 20 μl + 1xD-PBS 140 μl + Fe-Ser•Na (50 mM) 158 μl
[12] = Fe-NTA solution (20 mM) 40 μl + 1xD-PBS 120 μl + Fe-Ser•Na (50 mM) 158 μl
[13] = Fe-NTA solution (20 mM) 80 μl + 1xD-PBS 80 μl + Fe-Ser•Na (50 mM) 158 μl
[14] = Fe-NTA solution (20 mM) 160 μl + 1xD-PBS 0 μl + Fe-Ser•Na (50 mM) 158 μl

## O=C(O)C(CO)NCc1ccccc1O (stereo not drawn) [Example 1, o-[(1-carboxy-2-hydroxyethyl)-amino-methyl]-phenol]
[1]; [3]
  [B] absorbance after addition of iron chelating agent: 0.011
  [B]-[A]: 0.007
[1]; [4]
  [B] absorbance after addition of iron chelating agent: 0.017
  [B]-[A]: 0.014
[1]; [5]
  [B] absorbance after addition of iron chelating agent: 0.026
  [B]-[A]: 0.023
[1]; [6]
  [B] absorbance after addition of iron chelating agent: 0.041
  [B]-[A]: 0.036
[1]; [7]
  [B] absorbance after addition of iron chelating agent: 0.075
  [B]-[A]: 0.071
[1]; [8]
  [B] absorbance after addition of iron chelating agent: 0.135
  [B]-[A]: 0.125
[1]; [9]
  [B] absorbance after addition of iron chelating agent: 0.008
  [B]-[A]: 0.005
[1]; [10]
  [B] absorbance after addition of iron chelating agent: 0.081
  [B]-[A]: 0.077
[1]; [11]
  [B] absorbance after addition of iron chelating agent: 0.163
  [B]-[A]: 0.153
[1]; [12]
  [B] absorbance after addition of iron chelating agent: 0.322
  [B]-[A]: 0.296
[1]; [13]
  [B] absorbance after addition of iron chelating agent: 0.731
  [B]-[A]: 0.676
[1]; [14]
  [B] absorbance after addition of iron chelating agent: 1.244
  [B]-[A]: 1.132
[1]; conclusion from Tables 3 to 4
  capture of iron ions from an iron nitrilotriacetate complex: iron ions can be captured
  chelating ability with iron: has chelating ability with iron
[2]; conclusion from Table 5
  capture of iron ions from the transferrin iron complex: does not remove iron ions of the transferrin iron complex
  change of absorbance (wavelength 466 nm) after addition to the transferrin iron complex solution: increased
[2]; relative to non-treated holo-Transferrin, 24 hours with 5 mM chelator solution
  hTf residual ratio (%): 104.32%
[2]; transferrin fraction after 24 hours at room temperature with 5 mM chelator solution and 50 μM transferrin iron complex solution, ultrafiltration
  Absorbance (466 nm): 0.0772
